Results as given in patent US9222118B2 (priority 2008, dated 2015).
“Also recorded” adds a separate entry of the source. Counter-ions that a name gives are not always drawn.

Experiments:
Ebolavirus minigenome = assay type: cell-based
VSVΔG*-Ebolavirus GP = assay type: cell-based; details: 10 μM
EbolaΔVP30-GFP = assay type: cell-based, Zaire ebolavirus
VeroVP30 cells = details: green monkey
adenovirus Ad-5 = assay type: cell-based
EbolaΔVP30-GFP virus = experiment: microbe, parasite or virus in culture; assay type: cell-based, Zaire ebolavirus; details: Zaire ebolavirus
in vitro = details: green monkey
[1] = system: Vesicular stomatitis virus (VSV) strain Indiana; assay type: cell-based
vaccinia virus = assay type: cell-based
influenza virus = assay type: cell-based
VSV = assay type: cell-based
[2] = system: VSV pseudotyped with Ebola GP glycoprotein; assay type: cell-based, Ebolavirus
[3] = system: phosphoinositide-3 (PI3) kinase-Akt pathway; assay type: cell-based
[4] = system: VSV pseudotyped with GPs of all known subtypes of Ebolavirus (Zaire, Reston, Sudan, Ivory Coast); assay type: cell-based
[5] = system: VSV pseudotyped with the GP protein of Marburgvirus; assay type: cell-based

Row | SMILES | % luc activity from the Ebolavirus minigenome (Ebolavirus minigenome) | Infectivities of VSVΔG*-Ebolavirus GP standardized by the infectivities of VSVΔG*-VSV G (VSVΔG*-Ebolavirus GP) [%] | reduction of EbolaΔVP30 virus growth (EbolaΔVP30-GFP) [%] | % cell viability (VeroVP30 cells) [%] | inhibition of adenovirus growth (adenovirus Ad-5) | effect on protein expression from the Ebolavirus minigenome (Ebolavirus minigenome) | IC50 (EbolaΔVP30-GFP virus) [nM] | inhibition at 5 µM (EbolaΔVP30-GFP virus; read-out: % GFP inhibition) [%] | CC50 (in vitro) [nM] | inhibition of VSV growth [1] | inhibition of vaccinia virus growth (vaccinia virus) | inhibition of EbolaΔVP30-GFP growth (EbolaΔVP30-GFP) | effect on growth of influenza virus (influenza virus) | effect on growth of VSV (VSV) | infection of VSV pseudotyped with Ebola GP bound to cell surfaces [2] | inhibition of the PI3 kinase-Akt pathway [3] | reduction of titers of pseudotyped viruses [4] | reduction of virus titers [5]
1 | COC1=C2C[C@@H](C)C[C@H](OC)[C@H](O)[C@@H](C)/C=C(\C)[C@H](OC(N)=O)[C@@H](OC)/C=C\C=C(/C)C(=O)NC(=CC1=O)C2=O [GM, geldanamycin] | 24.7%±7.7% | 137 | 30 | – | – | – | – | – | – | – | – | – | – | – | – | – | – | –
2 | CC(=O)O[C@@H]1C[C@H]2C(C)(C)C(=O)C=C[C@]2(C)[C@H]2CC[C@@]3(C)[C@H](c4ccoc4)OC(=O)[C@H]4O[C@]43[C@@]21C [Gedunin] | 1.3%±0.2% | – | – | 77 | slightly inhibitory; also recorded: slightly delay the propagation | inhibit protein expression from the Ebolavirus minigenome | 330 | 102 | > 10000 | slightly delay the propagation | slightly delay the propagation | completely inhibited | – | – | – | – | – | –
3 | CN1C2CCC1CC(OC(c1ccccc1)c1ccccc1)C2 (stereo not shown) [benztropine mesylate] | – | – | – | – | – | – | – | – | – | – | – | – | does not affect the growth | does not affect the growth | inhibit infection | did not inhibit | 98-99% | about 75%
